# Experimental data from article PMC6934184, “Selective DNA-PKcs inhibition extends the therapeutic index of localized radiotherapy and chemotherapy” (The Journal of Clinical Investigation, 2019).
# Target: T1, ABL1 Y253F (Homo sapiens, UniProt P00519, Y253F)
# T1 construct: purchased Thermo Fisher Scientific (Life Technologies) SelectScreen
# Assay: SelectScreen Z'LYTE
# Assay type: biochemical
# In short: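 Percent values come from Thermo SelectScreen profiling of NU5455, combining activity and binding assays. CSF1R was run in Z'LYTE format at Km app ATP, and CAMK1 in Adapta format with ATP listed at 10.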
smiles,measurement,value
CN(C(=O)CN1CCOCC1)c1ccc2sc3c(-c4cccc5c(=O)cc(N6CC7CCC(C6)O7)oc45)cccc3c2c1 [NU5455],inhibition at 1 µM,5.9%
